Results on 2 compounds are retold here after ChEMBL document CHEMBL1158852, “A new sesquiterpene ester from Celastrus orbiculatus reversing multidrug resistance in cancer cells” (J Nat Prod, 1998).

Each structure is given as a SMILES string.

Test [1] is described as follows: Cytotoxicity against human KB-3-1 cells by SRB assay. The class given is functional, cell-based.
Test [2] in a line: Cytotoxicity against drug-resistant human KBV1 cells by SRB assay. The class given is functional, cell-based. The settings on record: KB-V1. On the technique in general: In SRB staining, fixed cells bind dye roughly in proportion to their protein.
Test [3] can be described thus: Cytotoxicity against drug-resistant human KBV1 cells in presence of 0.1 uM Vinblastine by SRB assay. The class given is functional, cell-based. The settings on record: KB-V1.
The subject of test [4] is MCF7. In words: Cytotoxicity against human MCF7 cells by SRB assay. The class given is functional, cell-based.
Test [5] is described as follows: Cytotoxicity against drug-resistant human MCF7/ADR cells by SRB assay. The class given is functional, cell-based. The settings on record: NCI/ADR-RES.
Test [6] in a line: Cytotoxicity against drug-resistant human MCF7/ADR cells in presence of 10 uM Adriamycin by SRB assay. The test is classed as functional, cell-based. The settings on record: NCI/ADR-RES.
Test [7] deals with SNB-19. In words: Cytotoxicity against human SNB19 cells by SRB assay. The class given is functional, cell-based.
Test [8] concerns SK-OV-3. In words: Cytotoxicity against human SKOV3 cells by SRB assay. The test is classed as functional, cell-based.
In test [9] the test system is NCI-H23. Put plainly: Cytotoxicity against human NCI-H23 cells by SRB assay. The test is classed as functional, cell-based.
For test [10], the system named is UACC-62. In words: Cytotoxicity against human UACC62 cells by SRB assay. The test is classed as functional, cell-based.
Test [11] concerns KM12. Put plainly: Cytotoxicity against human KM12 cells by SRB assay. The test is classed as functional, cell-based.
The nature of test [12]: Cytotoxicity against human MOLT cells by SRB assay. The class given is functional, cell-based.
The test system of test [13] is KBV1. Put plainly: Inhibition of P-gp-mediated multidrug resistance assessed as ratio of Adriamycin IC50 for drug-resistant human KBV1 cells to drug-sensitive human KB-3-1 cells at 3 uM. The test is classed as cell-based.
Test [14] has as its system KBV1. In words: Inhibition of P-gp-mediated multidrug resistance assessed as ratio of Vinblastine IC50 for drug-resistant human KBV1 cells to drug-sensitive human KB-3-1 cells at 3 uM. The class given is cell-based.
Test [15] concerns KBV1. In words: Inhibition of P-gp-mediated multidrug resistance assessed as ratio of Paclitaxel IC50 for drug-resistant human KBV1 cells to drug-sensitive human KB-3-1 cells at 3 uM. The class given is cell-based.

In general, IC50 refers to the concentration that inhibits the measured activity by half. In the case of `CC(=O)O[C@H]1CC[C@@H](C)[C@]23OC(C)(C)[C@H](C[C@H](OC(=O)c4ccccc4)[C@]12C)[C@H]3OC(=O)c1ccccc1`, the concentration for half-maximal inhibition (IC50) in test [1] came out at 9.26 µM; in test [2], 13 µM; in test [3], 1.36 µM; in test [4], 10.8 µM; in test [5] it was 14.4 µM; in [6], 1.39 µM. Moreover, the IC50 turned out to be 18.3 µM in [7]; 19.3 µM in [8]; 16.8 µM in test [9]; 12.9 µM in test [10]; 14.9 µM in test [11]; 3.05 µM in test [12]. Further, the Ratio IC50 in [13] stood at 98.8; in test [14], 63.9; in test [15] it was 37.1.

As for `CC(=O)O[C@H]1C[C@@H](C)[C@]23OC(C)(C)[C@H](C[C@H](OC(=O)c4ccccc4)[C@]2(C)[C@H]1OC(C)=O)[C@H]3OC(=O)c1ccccc1` [ORBICULIN A], the IC50 in [1] is 49 µM; in test [2], 64.9 µM; in [3] it was 0.8 µM; in test [4] it was 53.2 µM; in test [5], 61.9 µM; in test [6], 1.15 µM. In addition, the IC50 in [7] worked out at 40.8 µM; in [8], 48.4 µM; in test [9], 41.9 µM; in [10], 38.8 µM; in test [11], 38.6 µM; in test [12], 7.33 µM.
